Reference: patent publication US7138361B2, “Herbicidal heterocycles” (E. I. du Pont de Nemours and Company, priority 2000, dated 2006)

Experiments:
Format in all cases: in vivo
[1] = system: smallflower flatsedge (Cyperus difformis); assay: Test C flooded paddy test; settings: for Flatsedge plant response rating: Flooded Paddy, scale 0 to 100, 0 no effect, 100 complete control; for Plant response rating, Flatsedge: flooded paddy test, scale 0 to 100 (0 no effect, 100 complete control)
Method in brief: (§1)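 Each species was cultivated to 2 leaves in flooded paddy pots, then treated. After a greenhouse period of 12–14 days, the plants were scored visually relative to controls from 0 (no effect) to 100 (complete control).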

[2] = system: duck salad (Heteranthera limosa); assay: Test C flooded paddy test; settings: for Ducksalad plant response rating: Flooded Paddy, scale 0 to 100, 0 no effect, 100 complete control; for Plant response rating, Ducksalad: flooded paddy test, scale 0 to 100 (0 no effect, 100 complete control)
Method in brief: as §1

rice (Oryza saliva) [3] = assay: Test C flooded paddy test; settings: for Rice plant response rating: Flooded Paddy, scale 0 to 100, 0 no effect, 100 complete control; for Plant response rating, Rice: flooded paddy test, scale 0 to 100 (0 no effect, 100 complete control)
Method in brief: as §1

[4] = system: barnyardgrass (Echinochloa crus-galli); assay: Test C flooded paddy test; settings: for Barnyardgrass plant response rating: Flooded Paddy, scale 0 to 100, 0 no effect, 100 complete control; for Plant response rating, Barnyardgrass: flooded paddy test, scale 0 to 100 (0 no effect, 100 complete control)
Method in brief: as §1

[5] = system: wheat (Triticum aestivum); assay: Test B postemergence; settings: 13 to 15 days
Method in brief: (§2)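 Greenhouse test: chemicals are formulated in a surfactant-containing non-phytotoxic solvent and applied either preemergence to planted seeds or postemergence to plants 2 to 18 cm tall. Response is rated visually versus controls after 13 to 15 days, 0 meaning no effect and 100 complete control.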

[6] = system: crabgrass (Digitaria sanguinalis); assay: Test B postemergence; settings: 13 to 15 days
Method in brief: as §2

[7] = system: pigweed (Amaranthus retroflexus); assay: Test B postemergence; settings: 13 to 15 days
Method in brief: as §2

[8] = system: blackgrass (Alopecurus myosuroides); assay: Test B postemergence; settings: 13 to 15 days
Method in brief: as §2

[9] = system: giant foxtail (Setaria faberii); assay: Test B postemergence; settings: 13 to 15 days
Method in brief: as §2

[10] = system: morning glory (Ipomoea hederacea); assay: Test B postemergence; settings: 13 to 15 days
Method in brief: as §2

[11] = system: Surinam grass (Brachiaria decumbens); assay: Test B postemergence; settings: 13 to 15 days
Method in brief: as §2

[12] = system: velvetleaf (Abutilon theophrasti); assay: Test B postemergence; settings: 13 to 15 days
Method in brief: as §2

wild oat (Avena fatua) = assay: Test B postemergence; settings: 13 to 15 days
Method in brief: as §2

[13] = system: cocklebur (Xanthium strumarium); assay: Test B postemergence; settings: 13 to 15 days
Method in brief: as §2

[14] = system: lambsquarters (Chenopodium album); assay: Test B postemergence; settings: 13 to 15 days
Method in brief: as §2

[15] = system: barnyardgrass (Echinochloa crus-galli); assay: Test B postemergence; settings: 13 to 15 days
Method in brief: as §2

corn (Zea mays) [16] = assay: Test B postemergence; settings: 13 to 15 days
Method in brief: as §2

[17] = system: crabgrass (Digitaria sanguinalis); assay: Test B preemergence; settings: scale 0 to 100, 0 no effect, 100 complete control
Method in brief: as §2

[18] = system: pigweed (Amaranthus retroflexus); assay: Test B preemergence; settings: scale 0 to 100, 0 no effect, 100 complete control
Method in brief: as §2

[19] = system: giant foxtail (Setaria faberii); assay: Test B preemergence; settings: scale 0 to 100, 0 no effect, 100 complete control
Method in brief: as §2

[20] = system: morning glory (Ipomoea hederacea); assay: Test B preemergence; settings: scale 0 to 100, 0 no effect, 100 complete control
Method in brief: as §2

[21] = system: Surinam grass (Brachiaria decumbens); assay: Test B preemergence; settings: scale 0 to 100, 0 no effect, 100 complete control
Method in brief: as §2

[22] = system: velvetleaf (Abutilon theophrasti); assay: Test B preemergence; settings: scale 0 to 100, 0 no effect, 100 complete control
Method in brief: as §2

[23] = system: cocklebur (Xanthium strumarium); assay: Test B preemergence; settings: scale 0 to 100, 0 no effect, 100 complete control
Method in brief: as §2

[24] = system: lambsquarters (Chenopodium album); assay: Test B preemergence; settings: scale 0 to 100, 0 no effect, 100 complete control
Method in brief: as §2

rice (Oryza saliva) [25] = assay: Test B preemergence; settings: scale 0 to 100, 0 no effect, 100 complete control
Method in brief: as §2

[26] = system: barnyardgrass (Echinochloa crus-galli); assay: Test B preemergence; settings: scale 0 to 100, 0 no effect, 100 complete control
Method in brief: as §2

corn (Zea mays) [27] = assay: Test B preemergence; settings: scale 0 to 100, 0 no effect, 100 complete control
Method in brief: as §2

[28] = system: smallflower flatsedge (Cyperus difformis); assay: Test B flooded paddy test; settings: Rate 1000 g/ha, scale of 0 to 100 where 0 is no effect and 100 is complete control, visually evaluated after 13 to 15 days
Method in brief: (§3)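 Visual injury score on a 0–100 scale, where 100 means complete control, assigned against untreated controls 13 to 15 days after plants at the 2-leaf stage were treated under flooded paddy conditions.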

[29] = system: duck salad (Heteranthera limosa); assay: Test B flooded paddy test; settings: Rate 1000 g/ha, scale of 0 to 100 where 0 is no effect and 100 is complete control, visually evaluated after 13 to 15 days
Method in brief: as §3

rice (Oryza saliva) [30] = assay: Test B flooded paddy test; settings: Rate 1000 g/ha, scale of 0 to 100 where 0 is no effect and 100 is complete control, visually evaluated after 13 to 15 days
Method in brief: as §3

[31] = system: barnyardgrass (Echinochloa crus-galli); assay: Test B flooded paddy test; settings: Rate 1000 g/ha, scale of 0 to 100 where 0 is no effect and 100 is complete control, visually evaluated after 13 to 15 days
Method in brief: as §3

[32] = Rate 125 g/ha, scale 0 (no effect) to 100 (complete control)
[33] = Rate 500 g/ha, scale 0 to 100, 0 is no effect, 100 is complete control

CC(C)c1ccn(C2SCN(c3cccc(C(F)(F)F)c3)C2=O)n1 (centres unmarked) [Compound 23]
80: Plant response rating, Ducksalad ([2]; Rate 125 g/ha) | Plant response rating, Barnyardgrass ([4]; Rate 62 g/ha) | Plant response rating, Barnyardgrass ([4]; Rate 125 g/ha) | Plant response rating, Foxtail, Giant [9, 33] | Plant response rating, Morningglory [10, 33] | Plant response rating, Cocklebur [13, 33] | Plant response rating, Lambsquarters [14, 32]
30: Plant response rating, Velvetleaf [12, 33] | Plant response rating, Rice (rice (Oryza saliva) [25]; Preemergence, Rate 500 g/ha)
0: Plant response rating, Wheat [5, 32] | Plant response rating, Wheat [5, 33] | Plant response rating, Blackgrass [8, 32] | Plant response rating, Wild Oat (wild oat (Avena fatua); [32]) | Plant response rating, Wild Oat (wild oat (Avena fatua); [33]) | Plant response rating, Morningglory ([20]; preemergence, Rate 125 g/ha) | Plant response rating, Surinam grass ([21]; preemergence, Rate 125 g/ha) | Plant response rating, Velvetleaf ([22]; Preemergence, Rate 500 g/ha) | Plant response rating, Velvetleaf ([22]; preemergence, Rate 125 g/ha) | Plant response rating, Cocklebur ([23]; preemergence, Rate 125 g/ha) | Plant response rating, Rice (rice (Oryza saliva) [25]; preemergence, Rate 125 g/ha) | Plant response rating, Barnyardgrass ([26]; preemergence, Rate 125 g/ha) | Plant response rating, Corn (corn (Zea mays) [27]; Preemergence, Rate 500 g/ha) | Plant response rating, Corn (corn (Zea mays) [27]; preemergence, Rate 125 g/ha) | Plant response rating, Flatsedge [28] | Plant response rating, Rice (rice (Oryza saliva) [30]) | Plant response rating, Barnyardgrass [31]
20: Plant response rating, Rice (rice (Oryza saliva) [3]; Rate 62 g/ha) | Plant response rating, Rice (rice (Oryza saliva) [3]; Rate 125 g/ha) | Plant response rating, Crabgrass [6, 32] | Plant response rating, Blackgrass [8, 33] | Plant response rating, Foxtail, Giant [9, 32] | Plant response rating, Morningglory [10, 32] | Plant response rating, Surinam grass [11, 32] | Plant response rating, Surinam grass [11, 33] | Plant response rating, Velvetleaf [12, 32] | Plant response rating, Barnyardgrass [15, 32] | Plant response rating, Corn (corn (Zea mays) [16]; [32]) | Plant response rating, Surinam grass ([21]; Preemergence, Rate 500 g/ha) | Plant response rating, Cocklebur ([23]; Preemergence, Rate 500 g/ha)
50: Plant response rating, Ducksalad ([2]; Rate 62 g/ha) | Plant response rating, Corn (corn (Zea mays) [16]; [33]) | Plant response rating, Foxtail, Giant ([19]; Preemergence, Rate 500 g/ha) | Plant response rating, Foxtail, Giant ([19]; preemergence, Rate 125 g/ha)
90: Plant response rating, Barnyardgrass [15, 33]
100: Flatsedge plant response rating ([1]; Rate 250 g/ha) | Flatsedge plant response rating ([1]; Rate 500 g/ha) | Plant response rating, Flatsedge ([1]; Rate 62 g/ha) | Plant response rating, Flatsedge ([1]; Rate 125 g/ha) | Ducksalad plant response rating ([2]; Rate 250 g/ha) | Ducksalad plant response rating ([2]; Rate 500 g/ha) | Rice plant response rating (rice (Oryza saliva) [3]; Rate 500 g/ha) | Barnyardgrass plant response rating ([4]; Rate 250 g/ha) | Barnyardgrass plant response rating ([4]; Rate 500 g/ha) | Plant response rating, Pigweed [7, 33] | Plant response rating, Lambsquarters [14, 33] | Plant response rating, Crabgrass ([17]; Preemergence, Rate 500 g/ha) | Plant response rating, Pigweed ([18]; Preemergence, Rate 500 g/ha) | Plant response rating, Pigweed ([18]; preemergence, Rate 125 g/ha) | Plant response rating, Lambsquarters ([24]; Preemergence, Rate 500 g/ha) | Plant response rating, Lambsquarters ([24]; preemergence, Rate 125 g/ha) | Plant response rating, Barnyardgrass ([26]; Preemergence, Rate 500 g/ha) | Plant response rating, Ducksalad [29]
40: Plant response rating, Crabgrass [6, 33] | Plant response rating, Cocklebur [13, 32]
70: Rice plant response rating (rice (Oryza saliva) [3]; Rate 250 g/ha) | Plant response rating, Pigweed [7, 32] | Plant response rating, Crabgrass ([17]; preemergence, Rate 125 g/ha)
60: Plant response rating, Morningglory ([20]; Preemergence, Rate 500 g/ha)
